This is an account of results in PubChem BioAssay (NCI).

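Cultured in 96-well plates, cells were exposed to test compound for 48 hours across five concentrations. The concentration for full growth arrest is given as TGI.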 Bounds are passed on as bounds.

The test system of the first test is HCT-15 colon. Put plainly: growth of human tumour cells (NCI), 48 h.
The compound `CCOC(=O)C1(C/C=C\CBr)CCCC1=O` (configuration not stated) returned a TGI of 66.5 µM.
`Cc1ccc(OCC2OC(n3cnc4c(Cl)nc(Nc5cc(Cl)cc(Cl)c5)nc43)CC2Oc2ccc(C)cc2)cc1` (configuration not stated): the TGI is more than 100 µM.
As for `O=c1c(-c2ccccc2)nnc2n(Cc3ccccc3)c3ccccc3n12`, the TGI is more than 100 µM.

The subject of a further test is MCF7 breast. Put plainly: growth of human tumour cells (NCI), 48 h.
The compound `COC1(OC)CCc2c(sc3ncnc(Nc4cccc(Br)c4)c23)C1` yielded a TGI of more than 100 µM.
Compound `C=CCC(CCC(C)=O)(C(=O)OCC)C(=O)OCC` had a TGI of more than 100 µM.
In turn, `CC(C)C(Cl)CCC(C)(Cl)C(=O)CBr` (configuration not stated) showed a TGI of 4.53 µM.
As to `Clc1ccc(C=Nc2ccc(Oc3ccc(Cl)cc3)c(Cl)c2)cc1`, the TGI turned out to be 88 µM.
For the compound `COC(=O)[C@H](Cc1ccccc1)NC(=O)c1ccc(CNC(=O)/C=C/c2csc(-c3ccccc3)n2)cc1`, the TGI is 32 µM.
`N#Cc1ccccc1OCCOc1ccccc1C#N` returned a TGI of more than 100 µM.
`CCN(/C=C1/C(=O)C(c2ccccc2)N(c2ccccc2)C1=O)CC` (configuration not stated) yielded a TGI of more than 10 µM.
In turn, `CCOC(=O)c1cn(CC)c(=O)n2c1nc1ccccc12` came in with a TGI of more than 100 µM.
Consider `Cc1cccc2sc(NC(=O)NS(=O)(=O)n3cnc4ccccc43)nc12`, for which the TGI was more than 100 µM.
The same measure, in the same setting: in the case of `COC(=O)C1CCC(=O)N1CN(C(C)=O)c1cccc(O)c1` (configuration not stated) it was more than 100 µM; in that of `COc1ccc(-c2oc3cc(-c4cc5oc(-c6ccc(OC)cc6)c(-c6ccc(OC)cc6)c5cc4OC)c(OC)cc3c2-c2ccc(OC)cc2)cc1`, more than 100 µM; in that of `COc1ccc2nc3c(c(N)c2c1)C1CCC3C1(C)C` (configuration not stated), more than 100 µM.
In turn, `Oc1c(N2CCCCC2)cc(-c2cc(N3CCCCC3)c(O)c3ccccc23)c2ccccc12` yielded a TGI of 59.2 µM.
In turn, `C[C@H]1CC[C@@]2(OC1)O[C@H]1C[C@H]3[C@@H]4CC[C@@H]5C[C@@H](OC6OC(CO)C(O)C(O)C6OC6OC(CO)C(O)C(O)C6O)CC[C@]5(C)[C@H]4CC[C@]3(C)[C@H]1[C@@H]2C` (some centres not stated) had a TGI of 3.8 µM.
Still for that read-out and setting: the result for `O=C(NCCC1CNc2ccccc21)OCc1ccccc1` (configuration not stated) reads more than 100 µM; that for `c1cc(-c2ccc(-c3ccsc3)s2)cs1`, more than 100 µM; that for `Cc1cc(N(CCC#N)CCC#N)ccc1/C(N=Nc1ccccc1)=N\NC(=O)c1cc(Cl)ccc1O`, 67.9 µM.
As to `Cc1ccc(S[C@@](C=O)(NC(=O)OCc2ccccc2)C(F)(F)F)cc1`, the TGI is 78.4 µM.
For the compound `CCOc1cnc(C(O)(c2ccccc2)c2ccccc2)o1`, the TGI was more than 100 µM.
The compound `COC(CN(C)C(=S)Nc1cccc2ccccc12)OC` registered a TGI of more than 10 µM.
Still for that read-out and setting: in the case of `CCOC(=O)C1(C/C=C\CBr)CCCC1=O` (configuration not stated) it was 55.2 µM; in that of `Cc1ccc(OCC2OC(n3cnc4c(Cl)nc(Nc5cc(Cl)cc(Cl)c5)nc43)CC2Oc2ccc(C)cc2)cc1` (configuration not stated), more than 100 µM.
With `O=c1c(-c2ccccc2)nnc2n(Cc3ccccc3)c3ccccc3n12`, the TGI was more than 100 µM.

The next test deals with MDA-MB-435. Put plainly: growth of human tumour cells (NCI), 48 h.
On to `COC1(OC)CCc2c(sc3ncnc(Nc4cccc(Br)c4)c23)C1`, for which the TGI is more than 100 µM.
In turn, `C=CCC(CCC(C)=O)(C(=O)OCC)C(=O)OCC` yielded a TGI of more than 100 µM.
`CC(C)C(Cl)CCC(C)(Cl)C(=O)CBr` (configuration not stated) showed a TGI of 14 µM.
Compound `Clc1ccc(C=Nc2ccc(Oc3ccc(Cl)cc3)c(Cl)c2)cc1` displayed a TGI of 82.5 µM.
Still for that read-out and setting: in the case of `COC(=O)[C@H](Cc1ccccc1)NC(=O)c1ccc(CNC(=O)/C=C/c2csc(-c3ccccc3)n2)cc1` it was more than 36.7 µM; in that of `N#Cc1ccccc1OCCOc1ccccc1C#N`, more than 100 µM.
`CCN(/C=C1/C(=O)C(c2ccccc2)N(c2ccccc2)C1=O)CC` (configuration not stated) returned a TGI of more than 10 µM.
Same read-out and setting: in the case of `CCOC(=O)c1cn(CC)c(=O)n2c1nc1ccccc12` it was more than 100 µM.
In turn, `Cc1cccc2sc(NC(=O)NS(=O)(=O)n3cnc4ccccc43)nc12` returned a TGI of more than 100 µM.
Same read-out and setting: in the case of `COC(=O)C1CCC(=O)N1CN(C(C)=O)c1cccc(O)c1` (configuration not stated) it was more than 100 µM; in that of `COc1ccc(-c2oc3cc(-c4cc5oc(-c6ccc(OC)cc6)c(-c6ccc(OC)cc6)c5cc4OC)c(OC)cc3c2-c2ccc(OC)cc2)cc1`, more than 100 µM.
The compound `COc1ccc2nc3c(c(N)c2c1)C1CCC3C1(C)C` (configuration not stated) yielded a TGI of more than 100 µM.
The same measure, in the same setting: in the case of `Oc1c(N2CCCCC2)cc(-c2cc(N3CCCCC3)c(O)c3ccccc23)c2ccccc12` it was 23.2 µM; in that of `C[C@H]1CC[C@@]2(OC1)O[C@H]1C[C@H]3[C@@H]4CC[C@@H]5C[C@@H](OC6OC(CO)C(O)C(O)C6OC6OC(CO)C(O)C(O)C6O)CC[C@]5(C)[C@H]4CC[C@]3(C)[C@H]1[C@@H]2C` (some centres not stated), 3.88 µM; in that of `O=C(NCCC1CNc2ccccc21)OCc1ccccc1` (configuration not stated), more than 100 µM.
`c1cc(-c2ccc(-c3ccsc3)s2)cs1`: the TGI is more than 100 µM.
With `Cc1cc(N(CCC#N)CCC#N)ccc1/C(N=Nc1ccccc1)=N\NC(=O)c1cc(Cl)ccc1O`, the TGI is more than 100 µM.
The compound `Cc1ccc(S[C@@](C=O)(NC(=O)OCc2ccccc2)C(F)(F)F)cc1` had a TGI of 86.3 µM.
On to `CCOc1cnc(C(O)(c2ccccc2)c2ccccc2)o1`, for which the TGI is more than 100 µM.
Compound `COC(CN(C)C(=S)Nc1cccc2ccccc12)OC` showed a TGI of more than 10 µM.
On the same count and under the same terms, in the case of `CCOC(=O)C1(C/C=C\CBr)CCCC1=O` (configuration not stated) it was 57.2 µM; in that of `Cc1ccc(OCC2OC(n3cnc4c(Cl)nc(Nc5cc(Cl)cc(Cl)c5)nc43)CC2Oc2ccc(C)cc2)cc1` (configuration not stated), more than 100 µM.
On to `O=c1c(-c2ccccc2)nnc2n(Cc3ccccc3)c3ccccc3n12`, for which the TGI was more than 100 µM.

The test system of another test is OVCAR-3 ovarian. Put plainly: growth of human tumour cells (NCI), 48 h.
As for `COC1(OC)CCc2c(sc3ncnc(Nc4cccc(Br)c4)c23)C1`, the TGI was more than 100 µM.
`C=CCC(CCC(C)=O)(C(=O)OCC)C(=O)OCC` returned a TGI of more than 100 µM.
Same read-out and setting: the result for `CC(C)C(Cl)CCC(C)(Cl)C(=O)CBr` (configuration not stated) reads 16.4 µM; that for `Clc1ccc(C=Nc2ccc(Oc3ccc(Cl)cc3)c(Cl)c2)cc1`, 40.4 µM.
With `COC(=O)[C@H](Cc1ccccc1)NC(=O)c1ccc(CNC(=O)/C=C/c2csc(-c3ccccc3)n2)cc1`, the TGI is 26.3 µM.
For the compound `N#Cc1ccccc1OCCOc1ccccc1C#N`, the TGI is more than 100 µM.
Compound `CCN(/C=C1/C(=O)C(c2ccccc2)N(c2ccccc2)C1=O)CC` (configuration not stated) showed a TGI of more than 10 µM.
On the same count and under the same terms, in the case of `CCOC(=O)c1cn(CC)c(=O)n2c1nc1ccccc12` it was more than 100 µM; in that of `Cc1cccc2sc(NC(=O)NS(=O)(=O)n3cnc4ccccc43)nc12`, 46.8 µM; in that of `COC(=O)C1CCC(=O)N1CN(C(C)=O)c1cccc(O)c1` (configuration not stated), more than 100 µM.
Regarding `COc1ccc(-c2oc3cc(-c4cc5oc(-c6ccc(OC)cc6)c(-c6ccc(OC)cc6)c5cc4OC)c(OC)cc3c2-c2ccc(OC)cc2)cc1`, the TGI was more than 100 µM.
In turn, `COc1ccc2nc3c(c(N)c2c1)C1CCC3C1(C)C` (configuration not stated) yielded a TGI of more than 100 µM.
Turning to `Oc1c(N2CCCCC2)cc(-c2cc(N3CCCCC3)c(O)c3ccccc23)c2ccccc12`, the TGI was more than 100 µM.
Compound `C[C@H]1CC[C@@]2(OC1)O[C@H]1C[C@H]3[C@@H]4CC[C@@H]5C[C@@H](OC6OC(CO)C(O)C(O)C6OC6OC(CO)C(O)C(O)C6O)CC[C@]5(C)[C@H]4CC[C@]3(C)[C@H]1[C@@H]2C` (some centres not stated) had a TGI of 3.88 µM.
`O=C(NCCC1CNc2ccccc21)OCc1ccccc1` (configuration not stated) returned a TGI of more than 100 µM.
With `c1cc(-c2ccc(-c3ccsc3)s2)cs1`, the TGI was more than 100 µM.
Same read-out and setting: the result for `Cc1cc(N(CCC#N)CCC#N)ccc1/C(N=Nc1ccccc1)=N\NC(=O)c1cc(Cl)ccc1O` reads 72.8 µM.
`Cc1ccc(S[C@@](C=O)(NC(=O)OCc2ccccc2)C(F)(F)F)cc1` yielded a TGI of more than 100 µM.
